According to patent US7498349B2, “Biaryl compounds having anti-infective activity” (Genesoft Pharmaceuticals, Inc., priority 2002, dated 2009):

Assays:
B. cereus ATCC 11778 = test: MIC, NCCLS broth microdilution assay; assay type: cell-based, Bacillus cereus; settings: B. cereus ATCC 11778
C. albicans ATCC 38247 = test: MIC, antifungal assay; assay type: cell-based, Candida albicans; settings: C. albicans ATCC 38247
E. faecalis ATCC 29212 = test: MIC, NCCLS broth microdilution assay; assay type: cell-based, Enterococcus faecalis; settings: E. faecalis ATCC 29212
S. aureus ATCC 13709 = test: MIC, NCCLS broth microdilution assay; assay type: cell-based, Staphylococcus aureus; settings: S. aureus ATCC 13709, methicillin sensitive strain (MSSA)
S. aureus ATCC 27660 = test: MIC, NCCLS broth microdilution assay; assay type: cell-based, Staphylococcus aureus; settings: S. aureus ATCC 27660, methicillin resistant strain (MRSA)
Description: (§1) In vitro biological activity data were collected for a variety of microorganisms, including Bacillus cereus (ATCC 11778), Staphylococcus aureus (ATCC 33591; ATCC 27660, a methicillin resistant strain (MRSA); ATCC 13709, a methicillin sensitive strain (MSSA)), Escherichia coli (ATCC 25922), Enterococcus faecalis (ATCC 29212), Streptococcus pneumoniae (ATCC 49619; ATCC 51422, a penicillin resistant strain (PRSP)), Enterococcus faecium (ATCC 51559, a vancomycin resistant strain (VRE)), and Staphylococcus epidermidis (ATCC 12228).
(§2) The minimal inhibition concentration (MIC) of these compounds was determined using the National Committee for Clinical Laboratory Standards (NCCLS) broth microdilution assay in microtiter plates, as set forth in: (1) the guidelines of the National Committee for Clinical Laboratory Standards (NCCLS) Document M7-A4 (NCCLS, 1997); (2) the guidelines of the National Committee for Clinical Laboratory Standards (NCCLS) Document M11-A4 (NCCLS, 1997); and (3) the guidelines and reference method of the National Committee for Clinical Laboratory Standards (NCCLS) Document M27 -T (NCCLS, 1995).

S. aureus ATCC 33591 = test: MIC, NCCLS broth microdilution assay; assay type: cell-based, Staphylococcus aureus; settings: S. aureus ATCC 33591
Description: as §1, §2

[1] = test system: S. epidermidis ATCC 12228; test: MIC, NCCLS broth microdilution assay; assay type: cell-based, Staphylococcus epidermidis
Description: as §1, §2

S. pneumoniae ATCC 49619 = test: MIC, NCCLS broth microdilution assay; assay type: cell-based, Streptococcus pneumoniae; settings: S. pneumoniae ATCC 49619
E. coli ATCC 25922 = test: MIC, NCCLS broth microdilution assay; assay type: cell-based, Escherichia coli; settings: E. coli ATCC 25922

| Compound | Minimum Inhibitory Concentration (MIC) (B. cereus ATCC 11778) | Minimum Inhibitory Concentration (MIC) (C. albicans ATCC 38247) | Minimum Inhibitory Concentration (MIC) (E. faecalis ATCC 29212) | Minimum Inhibitory Concentration (MIC) (S. aureus ATCC 13709) | Minimum Inhibitory Concentration (MIC) (S. aureus ATCC 27660) | Minimum Inhibitory Concentration (MIC) (S. aureus ATCC 33591) | Minimum Inhibitory Concentration (MIC) [1] | Minimum Inhibitory Concentration (MIC) (S. pneumoniae ATCC 49619) | Minimum Inhibitory Concentration (MIC) (E. coli ATCC 25922) [µg/mL] |
| --- | --- | --- | --- | --- | --- | --- | --- | --- | --- |
| NCCCCNc1ncccc1C(=O)Nc1ccc(-c2cc3ccccc3o2)cc1 [Compound A-18] | +++ (MIC ≦ 4) | ++ (4 < MIC < 12) | ++ (4 < MIC < 12) | +++ (MIC ≦ 4) | +++ (MIC ≦ 4) | +++ (MIC ≦ 4) | +++ (MIC ≦ 4) | +++ (MIC ≦ 4) | >32 |
| NCCNc1ncccc1C(=O)Nc1ccc(-c2cc3ccccc3o2)cc1 [Compound A-19] | +++ (MIC ≦ 4) | ++ (4 < MIC < 12) | +++ (MIC ≦ 4) | +++ (MIC ≦ 4) | +++ (MIC ≦ 4) | +++ (MIC ≦ 4) | +++ (MIC ≦ 4) | + (12 ≦ MIC ≦ 32) | >32 |
| CN(C)CCCNc1snc(C(=O)Nc2ccc(-c3cc4ccccc4s3)cc2)c1Cl [Compound A-47] | >32 µg/mL | +++ (MIC ≦ 4) | +++ (MIC ≦ 4) | +++ (MIC ≦ 4) | +++ (MIC ≦ 4) | +++ (MIC ≦ 4) | +++ (MIC ≦ 4) | >32 µg/mL | >32 |
| O=C(Nc1ccc(-c2cc3ccccc3s2)cc1)c1cccnc1NCCN1CCCC1 [Compound A-49] | +++ (MIC ≦ 4) | +++ (MIC ≦ 4) | +++ (MIC ≦ 4) | +++ (MIC ≦ 4) | +++ (MIC ≦ 4) | +++ (MIC ≦ 4) | +++ (MIC ≦ 4) | + (12 ≦ MIC ≦ 32) | >32 |
| CN(C)CCCNc1ncccc1C(=O)Nc1ccc(-c2cc3ccccc3s2)cc1 [Compound A-50] | +++ (MIC ≦ 4) | +++ (MIC ≦ 4) | +++ (MIC ≦ 4) | +++ (MIC ≦ 4) | +++ (MIC ≦ 4) | +++ (MIC ≦ 4) | +++ (MIC ≦ 4) | + (12 ≦ MIC ≦ 32) | >32 |
